# Several values for one entry are separate records, joined by “and”; a condition that tells them apart may be missing. Identical values can stand only once. Like-named read-outs stand apart in the source and are kept apart here.
# Assays:
# [1] = molecular target: T1, PfIMPα (Plasmodium falciparum, UniProt Q8IAW0); assay: biochemical; type: binding; settings: for % Inhibition of IMPα-NLS Interaction PfIMPα: compounds at 10 μM, PfIMPα (10 nM):TGS1-NLS-GFP (60 nM), relative to 1% DMSO control, quadruplicate
# T1 sequence (Q8IAW0 entry or part of it): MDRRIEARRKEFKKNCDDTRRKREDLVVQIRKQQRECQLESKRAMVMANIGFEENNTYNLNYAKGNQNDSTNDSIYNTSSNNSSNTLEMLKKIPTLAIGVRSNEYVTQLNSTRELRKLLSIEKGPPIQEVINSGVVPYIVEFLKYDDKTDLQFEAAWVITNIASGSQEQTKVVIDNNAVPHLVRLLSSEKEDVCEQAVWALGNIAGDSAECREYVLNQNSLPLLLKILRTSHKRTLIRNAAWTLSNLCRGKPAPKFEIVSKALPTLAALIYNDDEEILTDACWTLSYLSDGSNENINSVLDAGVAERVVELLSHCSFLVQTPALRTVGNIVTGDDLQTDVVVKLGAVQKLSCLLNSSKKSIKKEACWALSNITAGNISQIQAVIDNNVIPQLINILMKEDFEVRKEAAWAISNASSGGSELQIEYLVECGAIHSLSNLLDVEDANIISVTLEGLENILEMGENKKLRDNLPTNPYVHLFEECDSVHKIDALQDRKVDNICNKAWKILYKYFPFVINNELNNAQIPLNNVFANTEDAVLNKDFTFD
# Method: (§1) PfIMPα, TgIMPα, Mus musculus IMPα (MmIMPα), ΔIBBMmIMPα, and β1 (MmIMPβ) GST fusion proteins were expressed and purified essentially as previously. His-tagged TGS1-NLS-GFP, PfIMPα and TgIMPα proteins were purified using Ni^2+-affinity chromatography as described. His-tagged SV40 T-ag-NLS-GFP was purified as previously. Biotinylation of GST-tagged proteins was carried out using the Sulfo-NHS-Biotin reagent (Pierce, Rockford, IL, USA) as described previously. AlphaScreen binding assay was performed as described previously.
# Then, 10 nM biotinylated PfIMPα and 60 nM TGS1-NLS-GFP were used with library compounds, screened at 10 µM final concentration.
# Briefly, 5 μL of each compound in DMSO was added to quadruplicate wells of a 384-well plate along with appropriate controls including DMSO alone and ivermectin, as previously, using a JANUS Modular Dispense Technology (MDT) robotic system (PerkinElmer, Waltham, MA, USA). This was followed by successive 7 and 5 μL additions, respectively, of PfIMPα (10 nM) and TGS1-NLS-GFP (60 nM) or PBS (“no bait” control), respectively, and 30 min incubation at room temperature. […] Then, 4 µL of the AlphaScreen donor beads (1/40 dilution of GSH. acceptor beads in PBS) was finally added to each well using a Multidrop, followed by a further incubation of 2 h at room temperature in the dark.
# (§2) Plates were read for an Alphascreen signal on an Envision plate reader (PerkinElmer, Waltham, MA, USA), with signals from the negative control wells (no bait control) on each plate subtracted.
# [2] = molecular target: T2, TgIMPα (Toxoplasma gondii, UniProt A0A125YID0); assay: Thermostability assay (TSA), TgIMPα; type: binding
# T2 sequence (A0A125YID0 entry or part of it): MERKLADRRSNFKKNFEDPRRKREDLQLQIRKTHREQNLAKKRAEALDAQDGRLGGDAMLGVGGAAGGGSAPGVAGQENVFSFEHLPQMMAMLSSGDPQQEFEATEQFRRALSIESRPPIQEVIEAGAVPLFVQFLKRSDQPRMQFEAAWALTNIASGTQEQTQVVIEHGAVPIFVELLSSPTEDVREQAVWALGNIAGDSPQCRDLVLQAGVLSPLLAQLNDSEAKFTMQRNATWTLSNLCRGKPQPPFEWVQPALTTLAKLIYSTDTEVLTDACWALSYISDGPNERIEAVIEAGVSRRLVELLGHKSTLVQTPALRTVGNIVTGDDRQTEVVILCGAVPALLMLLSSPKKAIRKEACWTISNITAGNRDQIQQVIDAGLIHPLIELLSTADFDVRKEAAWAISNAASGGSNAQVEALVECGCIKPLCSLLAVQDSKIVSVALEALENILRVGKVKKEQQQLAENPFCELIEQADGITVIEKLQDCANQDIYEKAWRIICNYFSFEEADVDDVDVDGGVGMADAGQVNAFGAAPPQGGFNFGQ
# Method: (§3) The effect of inhibitory compounds on IMPα thermostability was tested, as previously, using the fluorescent dye SYPRO Orange (Thermo Fisher Scientific, Waltham, MA, USA) and the Qiagen Rotor-Gene Q6 plex instrument programmed in the melt curve mode. Increasing concentrations of compound in 0.5 µL DMSO were added to 24.5 µL recombinant protein (2 µM) in phosphate-buffered saline (PBS). Next, 1 µL of SYPRO Orange dye was added, the reaction mixture heated at 0.5 °C/min from 27 °C to 90 °C, and the fluorescence intensity caused by the SYPRO Orange binding to the proteins monitored (excitation/emission: 530/555 nm). Tm is the temperature at which 50% of the protein is unfolded.
# [3] = molecular target: T1, PfIMPα; type: binding
# [4] = molecular target: T2, TgIMPα; assay: biochemical; type: binding; settings: for % Inhibition of IMPα-NLS Interaction TgIMPα: compounds at 10 μM, TgIMPα (5 nM):T-ag-NLS-GFP (30 nM), relative to 1% DMSO control
# Method: as §1, §2
# [5] = molecular target: T3, MmIMPα (Mus musculus, UniProt P52293); assay: Thermostability assay (TSA), MmIMPα; type: binding
# T3 construct: GST; made in house
# Method: as §3
# [6] = molecular target: T1, PfIMPα; assay: Thermostability assay (TSA), PfIMPα; type: binding
# Method: as §3
# [7] = system: HFF cells; assay: MTT assay for host cell cytotoxicity; type: cell-based, human
# Method: The MTT assay was used to measure the cytotoxicity of the small molecules against the HFF cells as described. Briefly, freshly confluent HFF cells in a 96-well culture plate were treated with increasing concentrations of compounds for 48 h, prior to the MTT assay.
# [8] = molecular target: T4, MmIMPα/β heterodimer (Mus musculus, UniProt P52293); assay: AlphaScreen binding assay, MmIMPα/β:T-ag-NLS-GFP interaction; settings: compounds at 10 μM, MmIMPα/β (5 nM):T-ag-NLS-GFP (30 nM), relative to 1% DMSO control
# T4 construct: GST; made in house
# Method: as §1, §2
# [9] = system: P. falciparum; settings: cited from earlier work
# [10] = system: T. gondii tachyzoites; settings: cited from earlier work
# [11] = pooled, mean ± SEM (n = 3), read-out: IC50 PfIMPα:TGS1-NLS-GFP
# [12] = pooled, mean ± SEM (n = 3), read-out: IC50 TgIMPα:T-ag-NLS-GFP
# [13] = concentrations higher than 20 µM
# [14] = concentrations of 75 µM or higher
structure (smiles),measurement,setting,value
CC(C)(C)c1ccc(S(=O)(=O)/C=C/C#N)cc1 [Bay 11-7085],% Inhibition of IMPα-NLS Interaction PfIMPα,[1],75%
same,TgIMPα stable only up to,[2]; 10–20 µM,30–36 °C
same,reduction of thermostability of TgIMPα,[2]; 10–20 µM,9–15 °C
same,IC50,[3]; [11],2 µM and 1.9 µM
same,fold lower IC50 for PfIMPα compared to both TgIMPα and MmIMPα,[3]; range over both comparisons,12-16 fold
same,% Inhibition of IMPα-NLS Interaction TgIMPα,[4],0%
same,IC50,[4]; [12],30.4 ± 0.6 µM
same,fold higher IC50 for TgIMPα-NLS compared to PfIMPα-TGS-NLS interaction,[4]; selectivity for PfIMPα,~16 fold
same,MmIMPα stable only up to,[5]; 10–20 µM,30–36 °C
same,reduction of thermostability of MmIMPα,[5]; 10–20 µM,9–15 °C
same,increase of stability of PfIMPα,[6]; [13],9–11 °C
same,thermostability of PfIMPα reached,[6]; [13],48–50 °C
same,reduction of stability of PfIMPα,[6]; concentrations up to 10 µM,6 °C
same,thermostability of PfIMPα reached,[6]; concentrations up to 10 µM,39 °C
same,CC50,[7],8.2 ± 0.7 µM
"O=C(/C=C/c1ccc(O)c(O)c1)OCCc1ccccc1 [CAPE, Caffeic acid phenethyl ester]",IC50,[1],1.8 ± 0.3 µM
same,inhibition at 10 µM,[1]; read-out: % Inhibition of IMPα-NLS Interaction PfIMPα,84%
same,change in stability of TgIMPα,[2]; up to 100 µM,did not elicit any marked change in stability
same,IC50,[4],2.9 ± 0.9 µM
same,inhibition at 10 µM,[4]; read-out: % Inhibition of IMPα-NLS Interaction TgIMPα,62%
same,change in stability of MmIMPα,[5]; up to 100 µM,did not elicit any marked change in stability
same,increase in thermostability of PfIMPα,[6]; [14],2 °C
same,thermostability of PfIMPα reached,[6]; [14],47 °C
same,inhibition at 10 µM,[8]; read-out: % Inhibition of IMPα-NLS Interaction MmIMPα/β,14%
CC(=O)OC[C@H]1O[C@@H]([S-])[C@H](OC(C)=O)[C@@H](OC(C)=O)[C@@H]1OC(C)=O.CCP(CC)CC.[Au+] [auranofin],% Inhibition of IMPα-NLS Interaction PfIMPα,[1],94%
same,TgIMPα stable only up to,[2]; concentrations as low as 5 μM,32–35 °C
same,reduction of thermostability of TgIMPα,[2]; concentrations as low as 5 μM,12–15 °C
same,IC50,[3]; [11],0.07 ± 0.01 µM
same,IC50,"[3]; range over PfIMPα, TgIMPα and MmΔIBBIMPα interactions, read-out: IC50 values of all three IMPα:NLS interactions",0.06 to 0.08 µM
same,IC50,"[3]; single experiment (Figure 3), IMPα 5 nM, NLS 30 nM, read-out: IC50 PfIMPα:TGS1-NLS-GFP",0.08 µM
same,activity against P. falciparum,[9],possess activity
same,% Inhibition of IMPα-NLS Interaction TgIMPα,[4],90%
same,IC50,[4]; [12],0.08 ± 0.01 µM
same,IC50,"[4]; single experiment (Figure 3), IMPα 5 nM, NLS 30 nM, read-out: IC50 TgIMPα:T-ag-NLS-GFP",0.05 µM
same,MmIMPα stable only up to,[5]; concentrations as low as 5 μM,32–35 °C
same,reduction of thermostability of MmIMPα,[5]; concentrations as low as 5 μM,12–15 °C
same,PfIMPα stable only up to,[6]; concentrations as low as 5 μM,32–35 °C
same,reduction of thermostability of PfIMPα,[6]; concentrations as low as 5 μM,12–15 °C
same,activity against cultured T. gondii,[10],possess activity
same,CC50,"[7]; MTT assay, 48 h, mean ± SD (n = 2), read-out: CC50 HFF cells",5.1 µM
same,cytotoxicity to HFF cells,[7]; at concentrations < c. 5 µM,essentially absent
same,% Inhibition of IMPα-NLS Interaction MmIMPα/β,[8],100%

# Source: PMC8997399, “High-Throughput Screening to Identify Inhibitors of Plasmodium falciparum Importin α” (Cells, 2022)
